Results on 13 compounds are retold here after patent US9303016B2, “Derivatives of aza adamantane and uses thereof” (CONNEXIOS LIFE SCIENCES PVT. LTD., priority 2011, dated 2016).

The test addresses T1, human full length HSD11β1 (Homo sapiens, UniProt P28845).
T1 construct: transient expression of human full length HSD11β1 expression vector; host or cells: CHO cells, transient transfection
The test can be described thus: In Vitro HSD11β1 Inhibition Assay. Type of test: cell-based. The conditions noted are these: CHO cells transiently expressing human HSD11β1; 200 nM cortisone+500 uM NADPH overnight; cortisone to cortisol by LC/MS-MS; read-out: 11βHSD1 (IC50). The method in brief:
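Whole-cell assay in CHO cells transiently transfected with full-length human HSD11β1, re-seeded 24 h after transfection. Cells incubated overnight with 200 nM cortisone plus 500 uM NADPH, with or without inhibitor. Cortisone-to-cortisol conversion measured by LC/MS-MS; IC50 (nM) from an 8-point log concentration-inhibition curve.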

T1 sequence (P28845 whole entry): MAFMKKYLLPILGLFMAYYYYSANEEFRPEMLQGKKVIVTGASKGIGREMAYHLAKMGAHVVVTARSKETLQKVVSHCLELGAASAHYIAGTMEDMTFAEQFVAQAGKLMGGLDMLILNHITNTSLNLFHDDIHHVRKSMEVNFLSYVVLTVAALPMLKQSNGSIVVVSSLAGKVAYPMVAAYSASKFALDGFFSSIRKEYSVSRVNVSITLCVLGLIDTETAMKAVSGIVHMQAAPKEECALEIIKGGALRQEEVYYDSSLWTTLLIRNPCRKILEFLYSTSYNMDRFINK

As to `CC(CC(=O)N1C2CC3CC1CC(O)(C3)C2)c1c[nH]c2cc(Cl)c(C3CC3)cc12` (stereo not shown) [Compound 138, 3-(6-chloro-5-cyclopropyl-1H-indol-3-yl)-1-(5-hydroxy-2-azatricyclo[3.3.1.1^3,7]dec-2-yl)butan-1-one], the IC50 was 100 to 150 nM. In the case of `Cc1c(F)ccc2[nH]cc(C(C)CC(=O)N3C4CC5CC3CC(O)(C5)C4)c12` (stereo not shown) [Compound 139, 3-(5-fluoro-4-methyl-1H-indol-3-yl)-1-(5-hydroxy-2-azatricyclo[3.3.1.1^3,7]dec-2-yl)butan-1-one] it was less than 100 nM; in that of `CC(CC(=O)N1C2CC3CC1CC(C(=O)O)(C3)C2)c1c[nH]c2ccc(-c3ccccc3)cc12` (stereo not shown) [Compound 142, 2-[3-(5-phenyl-1H-indol-3-yl)butanoyl]-2-azatricyclo[3.3.1.1^3,7]decane-5-carboxylic acid], greater than 250 nM. For `CC(CC(=O)N1C2CC3CC1CC(CC(=O)O)(C3)C2)c1c[nH]c2cccc(Cl)c12` (stereo not shown) [Compound 145, {2-[3-(4-chloro-1H-indol-3-yl)butanoyl]-2-azatricyclo[3.3.1.1^3,7]dec-5-yl}acetic acid] the value was 100 to 150 nM; for `CC(CC(=O)N1C2CC3CC1CC(c1nnn[nH]1)(C3)C2)c1c[nH]c2cccc(C3CC3)c12` (stereo not shown) [Compound 149, 3-(4-cyclopropyl-1H-indol-3-yl)-1-[5 (1H-tetrazol-5-yl)-2-azatricyclo[3.3.1.1^3,7]dec-2-yl]butan-1-one], greater than 250 nM; for `CC(CC(=O)N1C2CC3CC1CC(CC(=O)O)(C3)C2)c1c[nH]c2cccc(C3CC3)c12` (stereo not shown) [Compound 152, {2-[3-(4-cyclopropyl-1H-indol-3-yl)butanoyl]-2-azatricyclo[3.3.1.1^3,7]dec-5-yl}acetic acid], 100 to 150 nM. On to `CC(CC(=O)N1C2CC3CC1CC(O)(C3)C2)c1c[nH]c2cccc(-c3cccs3)c12` (stereo not shown) [Compound 153, 1-(5-hydroxy-2-azatricyclo[3.3.1.1^3,7]dec-2-yl)-3-[4-(thiophen-2-yl)-1H-indol-3-yl]butan-1-one], for which the IC50 was less than 100 nM.

For `CC(CC(=O)N1C2CC3CC1CC(CC(=O)O)(C3)C2)c1c[nH]c2cccc(-c3cccs3)c12` (stereo not shown) [Compound 154, (2-{3-[4-(thiophen-2-yl)-1H-indol-3-yl]butanoyl}-2-azatricyclo[3.3.1.1^3,7]dec-5-yl)acetic acid], the IC50 was greater than 250 nM.

Regarding `O=C(O)CC12CC3CC(C1)N(C(=O)CC(c1cccs1)c1c[nH]c4cccc(F)c14)C(C3)C2` (stereo not shown) [Compound 159, {2-[3-(4-fluoro-1H-indol-3-yl)-3-(thiophen-2-yl)propanoyl]-2-azatricyclo[3.3.1.1^7]dec-5-yl}acetic acid], the IC50 is 100 to 150 nM.

For the compound `Cc1ccc2[nH]cc(C(C)CC(=O)N3C4CC5CC3CC(O)(C5)C4)c2c1C1CC1` (stereo not shown) [Compound 160, 3-(4-cyclopropyl-5-methyl-1H-indol-3-yl)-1-(5-hydroxy-2-azatricyclo[3.3.1.1^3,7]dec-2-yl)butan-1-one], the IC50 lay within 100 to 150 nM. On to `CC(CC(=O)N1C2CC3CC1CC(CC(=O)O)(C3)C2)c1c[nH]c2ccc(Cl)c(Br)c12` (stereo not shown) [Compound 162, {2-[3-(4-bromo-5-chloro-1H-indol-3-yl)butanoyl]-2-azatricyclo[3.3.1.1^3,7]dec-5-yl}acetic acid], for which the IC50 fell in the range of 150 to 200 nM. For the compound `CC(CC(=O)N1C2CC3(O)CC1CC(O)(C2)C3)c1c[nH]c2ccc(Cl)c(C3CC3)c12` (stereo not shown) [Compound 163, 3-(5-chloro-4-cyclopropyl-1H-indol-3-yl)-1-(5,7-dihydroxy-2-azatricyclo[3.3.1.1^3,7]dec-2-yl)butan-1-one], the IC50 is greater than 250 nM. In the case of `Cc1ccc2[nH]cc(C(C)CC(=O)N3C4CC5CC3CC(O)(C5)C4)c2c1C` (stereo not shown) [Compound 164, 3-(4,5-dimethyl-1H-indol-3-yl)-1-(5-hydroxy-2-azatricyclo[3.3.1.1^3,7]dec-2-yl)butan-1-one] it was 100 to 150 nM.
